Where two headings read alike, the source gives them in different places. Starred links: 1 amine or outer side, 2 acyl side, 3 side chain; linkers in the order of their positions; H or OH if unused. Positions of bridges follow the written chain, without caps; N, C: chain ends. Non-standard residues stand in square brackets, D forms with d. Residues, ends and D or L forms follow the SMILES beside them. Chains are numbered I, II in the order given. Actinocin(9to1) = Cc1c2oc3c(C)ccc(C(=O)[*:1])c3nc-2c(C(=O)[*:2])c(N)c1=O; NMeV = CN[C@H](C(=O)O)C(C)C; Sar = CNCC(=O)O
How the values were obtained:
[1] = Toxicity / maximum tolerated dosage in mice; format: in vivo; details: mouse, in vivo, ip, single QD day 1 ip, read-out: Max. tolerated dosage
Protocol: In Example N other compounds of the invention were tested against L1210 cells. […] Activity in Table 14-a is tabulated as both increases in life span and as cells surviving treatment and that in table 14-b as T/C.

[2] = Solubility (maximum solubility); format: physicochemical
L1210 cells [3] = assay: Life span of BDF1 mice inoculated ip with 10^6 L1210 leukemia cells; format: in vivo, mouse; details: for T/C: single QD day 1 ip (Table 14-b); for T/C (%): ip day 1, Enantiomer A 37 mg/kg, Enantiomer B 173 mg/kg; for relative activity of the two enantiomers (words): mouse, in vivo; for Increased life span: qd days 1,3,5,7
Protocol: As illustrative examples of use of the compounds of the invention the following examples are given. […] These standard tests utilize protocols developed under the auspices of the Developmental Therapeutics Program, Division of Cancer Treatment, National Cancer Institute, Bethesda, Md., U.S.A. Except as otherwise indicated the tests conform to these protocols and are evaluated utilizing criteria defined by the protocols.
(§1) Values below 25% are considered capable of producing effective therapy, those below 10% are considered good and those below 5% are considered very good. This expresses the percent of the cells which survived treatment based upon the original cells in the inoculum. Those tests expressed as increases in life span (% ILS) indicate the increased life span of the drug treated group compared to a control group.
(§2) As an indicator of reproducible activity, compounds of the invention and other known cancer chemotherapeutic agents were screened against L1210 lymphoid leukemia in vivo utilizing the mouse as a test species. Normal NCI protocols for this test require 10^5 seed cells of the L1210 cell line.
Cytosine Arabinoside must be given every three hours.
Mice were inoculated intraperitoneally on day 0 with a million cells of murine leukemia L1210. Drug was given qd days 1, 4 and 7. Increased life span is the mean increase in the treated group presented as a percentage of the mean life span of control mice.
Mice were inoculated intraperitoneally on day 0 with a million cells of murine leukemia L1210. Drugs were given qd days 1, 3, 5 and 7. Increased life span is presented as a percentage of the mean life span of control mice.

[4] = system: Human Colon Adenocarcinoma CX-1; details: data from Goldin et al 1981; activity indicated at ≤20; cited from earlier work
L1210 cells [5] = assay: L1210 cells surviving treatment (% of original inoculum); format: in vivo, mouse; details: for L1210 cells surviving treatment (% of original inoculum): ip day 1, Enantiomer A 37 mg/kg, Enantiomer B 173 mg/kg
Text: as §1
as §2, with “line. However for the purposes of tests with the L1210 cell line in testing the compounds of the invention for antitumor activity, a log greater, i.e. 10^6 cells were utilized.” for “line.”
Tables 2-a and 2-b illustrate a dose response for Compound 19 against L1210 inoculated mice expressed as both increased life span compared to control and as the number of cells of the original inoculum surviving drug treatment. As is evident from the various regimens of drug treatment shown in Tables 2-a and 2-b, effective therapeutic effects are noted and a dose response to Compound 19 is evident. […] Cytosine Arabinoside must be given every three hours. Test results are given utilizing standard protocols based on mean survival time and are expressed as T/C percentages (treated animals/control animals).

L1210 cells [6] = assay: Bioassay of viable L1210 cells in brain after intracranial inoculation and ip drug; format: in vivo, mouse; details: 24 hr after single ip dose (mg/kg): Methotrexate 12, Adriamycin 3, 6-Mercaptopurine 160, Cytosine Arabinoside 1200, Cyclophosphamide 140, Compound 19 173, Tiazofurin 1200, BCNU 20
Text: BDF1 mice were inoculated intracranially on day 0 with 1×10^5 L1210 cells. […] 24 hr after drug delivery the brains were collected, homogenized, and injected ip into untreated mice. Each mouse received the equivalent of half a brain. Thereafter, life span was monitored and, using inoculum-response data as a base of comparison, estimates were made of the numbers of viable cells in treated and control brains.

Compound: Nc1nc(S(N)(=O)=O)c2ncn([C@H]3C[C@H](O)[C@@H](CO)O3)c2n1 [Compound 24, 2-Amino-9-(2-deoxy-β-D-erythro-pentofuranosyl)-9H-purine-6-sulfonamide]
- MTD ([1]; L1210-inoculated BDF1 mice): 288 mg/kg
- Max. sol. dosage [2]: 480 mg/kg

Compound: NS(=O)(=O)c1ncnc2c1ccn2[C@H]1C[C@H](O)[C@@H](CO)O1 [Compound 55, 7-(2-Deoxy-β-D-erythro-pentofuranosyl)pyrrolo[2,3-d]-pyrimidine-4-sulfonamide]
- T/C (L1210 cells [3]): 125
- Max. sol. dosage [2]: 288 mg/kg

Compound: Bleomycin
- Activity rating δT/δC [4]: 51

Compound: O=C(O)CCCc1ccc(N(CCCl)CCCl)cc1 [Chlorambucil]
- Activity rating δT/δC [4]: 60

Compound: C[C@H]1O[C@@H](n2cnc3c(S(N)(=O)=O)nc(N)nc32)[C@H](O)[C@@H]1O [Compound 43, 2-Amino-9-(5-deoxy-β-D-ribofuranosyl)-9H-purine-6-sulfonamide]
- T/C (L1210 cells [3]): 130
- Max. sol. dosage [2]: 480 mg/kg

Compound: O=NN(CCCl)C(=O)NC1CCCCC1 [CCNU]
- Activity rating δT/δC [4]: 77

Compound: O=c1[nH]cc(F)c(=O)[nH]1 [5-Fluorouracil]
- Activity rating δT/δC [4]: 88

Compound: Nc1nc([S+](N)[O-])c2ncn([C@@H]3O[C@H](CO)[C@@H](O)[C@@H]3O)c2n1 (stereo partly drawn) [Compound 50, 2-Amino-9-β-D-arabinofuranosyl-9H-purine-6-sulfinamide]
- T/C (L1210 cells [3]): 140
- Max. sol. dosage [2]: 800 mg/kg

Compound: Nc1nc([S+](N)[O-])c2ncn([C@@H]3O[C@H](CO)[C@@H](O)[C@H]3O)c2n1 (single isomer, unassigned) [Enantiomer A]
- % ILS (L1210 cells [3]; 37 mg/kg/inj bid day 1, total A 70.94, B 1.26, contaminant 1.80 mg/kg): 44%
- % ILS (L1210 cells [3]; 37 mg/kg/inj printed qid day 1, total A 177.35, B 3.15, contaminant 4.50 mg/kg): 0%
- % ILS (L1210 cells [3]; 37 mg/kg/inj qd day 1, total A 35.47, B 0.63, contaminant 0.90 mg/kg): 22%
- % ILS (L1210 cells [3]; 37 mg/kg/inj qid day 1, total A 141.88, B 2.52, contaminant 3.60 mg/kg): 72%
- % ILS (L1210 cells [3]; 37 mg/kg/inj tid day 1, total A 106.41, B 1.89, contaminant 2.70 mg/kg): 72%
- T/C (%) (L1210 cells [3]): 108.7%
- relative activity of the two enantiomers (words) (L1210 cells [3]): greater activity with respect to enantiomer B because of solubility differences
- relative activity of the two enantiomers (words) (L1210 cells [3]; listed as enantiomer A): comparable activity
- Cells surviving treatment (% of original inoc.) (L1210 cells [5]; 37 mg/kg/inj bid day 1, total A 70.94 mg/kg): 10%
- Cells surviving treatment (% of original inoc.) (L1210 cells [5]; 37 mg/kg/inj qd day 1, total A 35.47 mg/kg): 64%
- Cells surviving treatment (% of original inoc.) (L1210 cells [5]; 37 mg/kg/inj qid day 1, total A 141.88 mg/kg): 1%
- Cells surviving treatment (% of original inoc.) (L1210 cells [5]; 37 mg/kg/inj tid day 1, total A 106.41 mg/kg): 1%
- L1210 cells surviving treatment (% of original inoculum) (L1210 cells [5]): 182.8%
- solubility [2]: about 3.7 mg per ml

Compound: N[C@@H](Cc1ccc(N(CCCl)CCCl)cc1)C(=O)O [Melphalan]
- Activity rating δT/δC [4]: 101

Compound: O=P1(N(CCCl)CCCl)NCCCO1 (centres unmarked) [Cyclophosphamide, reference compound]
- Residual cells (% of control brain) (L1210 cells [6]): 11.5%
- Activity rating δT/δC [4]: 113

Compound: CNNCc1ccc(C(=O)NC(C)C)cc1 [Procarbazine]
- Activity rating δT/δC [4]: 60

Compound: N.N.[Cl][Pt][Cl] [Cis-Platinum]
- Activity rating δT/δC [4]: 66

Compound: O=NN(CCCl)C(=O)N[C@H]1C(O)O[C@H](CO)[C@@H](O)[C@@H]1O (some centres unmarked) [Chlorozotocin]
- Activity rating δT/δC [4]: 75

Compound: CN(Cc1cnc2nc(N)nc(N)c2n1)c1ccc(C(=O)N[C@@H](CCC(=O)O)C(=O)O)cc1 [Methotrexate, reference compound]
- Residual cells (% of control brain) (L1210 cells [6]): 97%
- Activity rating δT/δC [4]: 66

Compound: CC[C@]1(O)C[C@H]2CN(CCc3c([nH]c4ccccc34)[C@@](C(=O)OC)(c3cc4c(cc3OC)N(C=O)[C@H]3[C@@](O)(C(=O)OC)[C@H](OC(C)=O)[C@]5(CC)C=CCN6CC[C@]43[C@@H]65)C2)C1 [Vincristine]
- Activity rating δT/δC [4]: 89

Compound: C[C@H]1O[C@@H](n2cnc3c([S+](N)[O-])nc(N)nc32)[C@H](O)[C@@H]1O (stereo partly drawn) [Compound 42, 2-Amino-9-(5-deoxy-β-D-ribofuranosyl)-9H-purine-6-sulfinamide]
- T/C (L1210 cells [3]; NaOH vehicle): 172
- Max. sol. dosage [2]: 104 mg/kg

Compound: CO[C@@]12[C@H](COC(N)=O)C3=C(C(=O)C(C)=C(N)C3=O)N1C[C@@H]1N[C@@H]12 [Mitomycin C]
- Activity rating δT/δC [4]: 62

Compound: Nc1nc([S+](N)[O-])c2ncn([C@@H]3O[C@H](CO)[C@@H](O)[C@H]3O)c2n1 (single isomer, unassigned) [Enantiomer B]
- T/C (%) (L1210 cells [3]): 144.9%
- relative activity of the two enantiomers (words) (L1210 cells [3]): comparable activity
- L1210 cells surviving treatment (% of original inoculum) (L1210 cells [5]): 7.5%
- solubility [2]: about 17.3 mg per ml

Compound: COc1cccc2c1C(=O)c1c(O)c3c(c(O)c1C2=O)C[C@@](O)(C(=O)CO)C[C@@H]3O[C@H]1C[C@H](N)[C@H](O)[C@H](C)O1 [Adriamycin, reference compound]
- Residual cells (% of control brain) (L1210 cells [6]): 89.5%
- Activity rating δT/δC [4]: 72

Compound: Nc1nc2c(ncn2[C@@H]2O[C@H](CO)[C@@H](O)[C@H]2O)c(=S)[nH]1 [6-Thioguanosine, reference compound]
- Increased life span (L1210 cells [3]; 8.1 mg/kg/inj injected): 48%
- Increased life span (L1210 cells [3]; 13 mg/kg/inj injected): 38%
- Increased life span (L1210 cells [3]; 22 mg/kg/inj injected): 42%
- Increased life span (L1210 cells [3]; 37 mg/kg/inj injected): 45%
- Increased life span (L1210 cells [3]; 62 mg/kg/inj injected): 42%
- Increased life span (L1210 cells [3]; 104 mg/kg/inj injected): 42%
- Increased life span (L1210 cells [3]; 173 mg/kg/inj injected): 52%

Compound: NC(=O)c1csc([C@@H]2O[C@H](CO)[C@@H](O)[C@H]2O)n1 [Tiazofurin, reference compound]
- % ILS (L1210 cells [3]; single agent day 1, Compound 19 173 mg/kg, Tiazofurin 22 mg/kg (Table 13)): 44%
- Residual cells (% of control brain) (L1210 cells [6]): 2.9%

Compound: CN(C)c1nc(N(C)C)nc(N(C)C)n1 [Hexamethylmelamine]
- Activity rating δT/δC [4]: 85

Compound: NSc1nc(N)nc2c1ncn2[C@H]1C[C@H](O)[C@@H](CO)O1 [Compound 45, 2-Amino-9-(2-deoxy-β-D-erythro-pentofuranosyl)-9H-purine-6-sulfenamide]
- T/C (L1210 cells [3]): 172
- Max. sol. dosage [2]: 480 mg/kg

Compound: CC[C@]1(O)C[C@@H]2CN(CCc3c([nH]c4ccccc34)[C@@](C(=O)OC)(c3cc4c(cc3OC)N(C)[C@H]3[C@@](O)(C(=O)OC)[C@H](OC(C)=O)[C@]5(CC)C=CCN6CC[C@]43[C@@H]65)C2)C1 [Vinblastine]
- Activity rating δT/δC [4]: 119

Compound: CN(C)/N=N/c1[nH]cnc1C(N)=O [DTIC]
- Activity rating δT/δC [4]: 92

Compound: O=NN(CCCl)C(=O)NCCCl [BCNU, reference compound]
- Residual cells (% of control brain) (L1210 cells [6]): 1.6%
- Activity rating δT/δC [4]: 63

Compound: CC1CCC(NC(=O)N(CCCl)N=O)CC1 (centres unmarked) [Methyl CCNU]
- Activity rating δT/δC [4]: 83

Compound: Nc1nc2nc[nH]c2c(=S)[nH]1 [6-Thioguanine]
- Activity rating δT/δC [4]: 81

Compound: NSc1nc(N)nc2nc[nH]c12 [Compound 2, 2-Aminopurine-6-sulfenamide]
- MTD ([1]; DMSO vehicle, BDF1 mice): 37 mg/kg
- MTD ([1]; NaOH vehicle, BDF1 mice): 104 mg/kg

Compound: Cc1c2oc3c(C)ccc(C(=O)N[C@@H]4C(=O)N[C@H](C(C)C)C(=O)N5CCC[C@H]5C(=O)N(C)CC(=O)N(C)[C@@H](C(C)C)C(=O)O[C@@H]4C)c3nc-2c(C(=O)N[C@@H]2C(=O)N[C@H](C(C)C)C(=O)N3CCC[C@H]3C(=O)N(C)CC(=O)N(C)[C@@H](C(C)C)C(=O)O[C@@H]2C)c(N)c1=O [Actinomycin D] (I: T[dV]P[Sar][NMeV] / II: T[dV]P[Sar][NMeV]; ester I:1-I:C, II:1-II:C; linker I:N-II:N via Actinocin(9to1))
- Activity rating δT/δC [4]: 73

Source: patent US5026836A, “6-sulfenamide, 6-sulfinamide and 6-sulfonamide purines, purine nucleosides, purine nucleotides, pharmaceutical compositions, and processes of making” (priority 1988, dated 1991)
